Test results as given in paper PMC6272341, “Synthesis and Biological Evaluation of N-Alkoxyphenyl-3-hydroxynaphthalene-2-carboxanilides” (Molecules, 2015).
Converted amounts (≈) assume the structure as drawn. Like-named read-outs stand apart in the source and are kept apart here.

How the values were obtained:
[1] = system: M. tuberculosis H37Ra ATCC 25177; test: In vitro antimycobacterial evaluation, alamarBlue (MIC); assay type: cell-based; conditions: Mycobacterium tuberculosis, 168 h, read-out: MIC MT
Procedure: The evaluation of the in vitro antimycobacterial activity of the compounds was performed against M. tuberculosis H37Ra ATCC 25177 [25] and clinical isolate of M. avium subsp. paratuberculosis CIT03 [26], see Table 1. The activity of compounds was expressed as the minimum inhibitory concentration (MIC) that is defined for mycobacteria as a 90% or greater (IC90) reduction of growth in comparison with the control. The MIC/IC90 value is routinely and widely used in bacterial assays, being a standard detection limit according to the Clinical and Laboratory Standards Institute.
Mycobacterium tuberculosis H37Ra ATCC 25177 and well characterised clinical isolate M. avium subsp. paratuberculosis CIT03 were grown in Middlebrook broth (MB), supplemented with Oleic-Albumin-Dextrose-Catalase supplement (Becton Dickinson, Oxford, UK) and mycobactin J (2 μg/mL). Identification of these isolates was performed using biochemical and molecular protocols. At log phase growth, a culture sample (10 mL) was centrifuged at 15,000 rpm/20 min using a bench top centrifuge (Model CR 4-12, Jouan Inc., Winchester, VA, USA). Following removal of the supernatant, the pellet was washed in fresh Middlebrook 7H9GC broth and re-suspended in fresh supplemented MB (10 mL). The turbidity was adjusted to match McFarland standard No. 1 (3 × 10^8 cfu) with MB broth. A further 1:20 dilution of the culture was then performed in MB broth. The antimicrobial susceptibility of all three mycobacterial species was investigated in a 96-well plate format. In these experiments, sterile deionised water (300 µL) was added to all outer-perimeter wells of the plates to minimize evaporation of the medium in the test wells during incubation. Sample wells were composed of 100 µL of test compound dilution and 100 µL of the bacterial stock being tested against. Dilutions of each compound were prepared in duplicate. For all synthesized compounds, final concentrations ranged from 1000 μg/mL to 8 μg/mL. All compounds were prepared in DMSO and subsequent dilutions were made in supplemented MB. The plates were sealed with parafilm and incubated at 37 °C, for 7 days in the case of M. tuberculosis and 11 days in the case of M. avium subsp. paratuberculosis. Following incubation, a 10% addition of alamarBlue (AbD Serotec, Kidlington, UK) was mixed into each well and readings at 570 nm and 600 nm were taken, initially for background subtraction and subsequently after 24 h re-incubation. The background subtraction is necessary for strongly coloured compounds, where the colour may interfere with the interpretation of any colour change. For non-interfering compounds, a blue colour in the well was interpreted as an absence of growth and a pink colour was scored as growth. […] The MIC value is routinely and widely used in bacterial assays and is a standard detection limit according to the Clinical and Laboratory Standards Institute (CLSI,). Rifampicin (Sigma-Aldrich) was used as the standard as it is clinically used antimycobacterial drugs.

[2] = system: clinical isolate of M. avium subsp. paratuberculosis CIT03; test: as above; assay type: cell-based; conditions: Mycobacterium avium, 264 h, read-out: MIC MAP
[3] = system: photosynthetic electron transport in spinach chloroplasts; test: Inhibition of photosynthetic electron transport (PET), DCPIP photoreduction (Hill reaction); assay type: biochemical, spinach (Spinacia oleracea L.)
Procedure: The PET inhibiting activity of the compounds was expressed by IC50 values. […] The aqueous solubility of the para-substituted compounds was limited; therefore IC50 values could not be determined due to precipitation of compounds during experiment. […]
Chloroplasts were prepared from spinach (Spinacia oleracea L.) according to Masarovicova and Kralova. The inhibition of photosynthetic electron transport (PET) in spinach chloroplasts was determined spectrophotometrically (Genesys 6, Thermo Scientific Corporation), using an artificial electron acceptor 2,6-dichlorophenol-indophenol (DCPIP) according to Kralova et al., and the rate of photosynthetic electron transport was monitored as a photoreduction of DCPIP. The measurements were carried out in phosphate buffer (20.0 mM, pH 7.2) containing sucrose (0.4 M), MgCl2 (5.0 mM) and NaCl (15.0 mM). The chlorophyll content was 30 mg/L in these experiments and the samples were irradiated (~100 W/m^2 with 10 cm distance) with a halogen lamp (250 W) using a 4 cm water filter to prevent warming of the samples (suspension temperature 22 °C). The studied compounds were dissolved in DMSO due to their limited aqueous solubility. The applied DMSO concentration (up to 4%) had negligible effect on the photochemical activity in isolated spinach chloroplasts (observed differences in DCPIP photoreduction due DMSO addition were within experimental error). The inhibitory efficiency of the studied compounds was expressed by IC50 values, i.e., by molar concentration of the compounds causing 50% decrease in DCPIP photoreduction relative to the untreated control. […] All reagents used in this study were of analytical grade and were purchased from Sigma.

[4] = system: Chla-protein complexes of photosystem II in spinach chloroplasts; test: Chlorophyll a fluorescence emission spectra in spinach chloroplasts; assay type: biochemical, spinach (Spinacia oleracea L.); conditions: 0, 102, 204, 408 and 612 μM; λex = 436 nm; band at 686 nm
Text: The studied compounds affected chlorophyll a (Chla) fluorescence in spinach chloroplasts indicating their interactions with constituents of photosynthetic apparatus. […] The extent of perturbation of Chla-protein complexes in the thylakoid membrane is reflected in the sharpness of decreased fluorescence of Chla pigment. A similar decrease of Chla fluorescence in plant chloroplasts was also observed previously after treatment with ring-substituted 1-hydroxynaphthalene-2-carboxanilides, 2-hydroxynaphthalene-1-carboxanilides, 5-bromo- and 3,5-dibromo-2-hydroxy-N-phenyl-benzamides and ring-substituted 4-arylamino-7-chloroquinolinium chlorides.
The emission fluorescence spectra were recorded on a fluorescence spectrophotometer F-2000 (Hitachi, Tokyo, Japan) at room temperature (24 °C). The samples of chloroplast suspension (10 mg chlorophyll/L) with and without the studied inhibitor were excited at 436 nm, using an excitation slit 20 nm and emission slit 10 nm, and were kept in the dark for 2 min prior to the measurement. Due to low aqueous solubility the compounds were added to a chloroplast suspension in DMSO solution. The DMSO concentration in all samples was the same as in the control (10%).

[5] = system: S. aureus ATCC 29213; test: In vitro antibacterial susceptibility testing, broth dilution micro-method (MIC); conditions: Staphylococcus aureus, ATCC29213, 24 h, read-out: MIC SA
[6] = system: methicillin-resistant S. aureus clinical isolate MRSA 63718; test: as above; conditions: for MIC: Staphylococcus aureus, MRSA, read-out: MIC MRSA 63718, clinical isolate MRSA 63718
[7] = system: methicillin-resistant S. aureus clinical isolate SA 630; test: as above; conditions: 24 h; for MIC: Staphylococcus aureus, MRSA, read-out: MIC MRSA SA 630, clinical isolate MRSA SA 630, 37 °C, MH broth
[8] = system: methicillin-resistant S. aureus clinical isolate SA 3202; test: as above; conditions: 24 h; for MIC: Staphylococcus aureus, MRSA, read-out: MIC MRSA 3202, clinical isolate MRSA 3202, 37 °C, MH broth
[9] = system: M. tuberculosis H37Ra ATCC 25177; test: MTT assay of mycobacterial viability; assay type: cell-based; conditions: Mycobacterium tuberculosis, 168 h; at the lowest tested concentration 8 µg/mL, ca. 24 µM; 7 days
Procedure: The MTT assay is a well-characterized method of assessing cell growth through measurement of respiration. For the purpose of this assay, an MTT measured viability of M. tuberculosis H37Ra of less than 70% after exposure to the MIC of each tested compound was considered a positive result.
For the MTT assay, the outer wells of a 96-well plate were filled with 200 µL of sterile water, and the inner wells were filled with 100 µL of the tested compound at the concentration to be examined. Compounds were prepared as previously stated and diluted in Middlebrook media to achieve the desired concentration. Mycobacterium tuberculosis H37Ra ATCC 25177 was suspended in ODAC supplemented Middlebrook broth at a MacFarland standard of 1.0 and then diluted through a 1:20, using Middlebrook broth as a diluent. The diluted mycobacteria (100 µL) were added to each well containing the compound to be tested. A negative growth control was composed of 100 µL of DMSO and 100 µL of media, and the diluted mycobacteria in broth absent of inhibiting compounds were used as a positive growth control. All compounds and controls were prepared in triplicate. Plates were incubated at 37 °C for 7 days. After the incubation period, 10% well volume of MTT reagent was mixed into each well and incubated at 37 °C for 24 h. The reagent and media were then aspirated from the wells, to which 50 µL 99% isopropanol was then added, and plates were read at 570 nm. The absorbance readings from the cells, grown in the presence of the tested compounds, were compared with uninhibited cell growth (using DMSO as the blank) to determine the relative percent viability. The percent viability was determined through the MTT assay. The percent viability is calculated through comparison of a measured value against that of the uninhibited control: %viability = OD570E/OD570P × 100, where OD570E is the reading from the compound-exposed cells, while OD570P is the reading from the uninhibited cells (positive control). Cytotoxic potential is determined by a percent viability of <70%.

[10] = system: human monocytic leukemia THP-1 cells; conditions: 24 h
[11] = M. tuberculosis H37Ra, 7 days, 37 °C, alamarBlue, MIC/IC90
[12] = M. avium subsp. paratuberculosis CIT03, 11 days, 37 °C, alamarBlue, MIC/IC90

| SMILES | MIC [1, 11] | MIC [2] | IC50 [3] | chlorophyll a fluorescence emission [4] | MIC [5] | MIC ([6]; 24 h, 24 h, 37 °C, MH broth) | MIC [7] | MIC [8] | MIC [1] | MIC [2, 12] | viability at 8 µg/mL [9] | LD50 [10] | activity fold higher than that of ampicillin ([6]; antibacterial activity against MRSA strains versus ampicillin) | MIC MRSA 63718 ([6]; clinical isolate MRSA 63718, 24 h, 37 °C, MH broth) | MIC MRSA SA 630 ([7]; clinical isolate MRSA SA 630, 37 °C, MH broth) | MIC MRSA 3202 ([8]; clinical isolate MRSA 3202, 37 °C, MH broth) |
| --- | --- | --- | --- | --- | --- | --- | --- | --- | --- | --- | --- | --- | --- | --- | --- | --- |
| CCOc1cccc(NC(=O)c2cc3ccccc3cc2O)c1 [Compound 4b, N-(3-Ethoxyphenyl)-3-hydroxynaphthalene-2-carboxamide] | 813 µM (≈ 250 µg/mL) | 813 µM (≈ 250 µg/mL) | 4.5 µM | decreased intensity of the emission band at 686 nm | 832 µM (≈ 256 µg/mL) | 832 µM (≈ 256 µg/mL) | 832 µM (≈ 256 µg/mL) | 832 µM (≈ 256 µg/mL) | – | – | – | – | – | – | – | – |
| CC(C)Oc1cccc(NC(=O)c2cc3ccccc3cc2O)c1 [Compound 7b, 3-Hydroxy-N-[3-(prop-2-yloxy)phenyl]naphthalene-2-carboxamide] | – | – | 6.9 µM | – | 796 µM (≈ 256 µg/mL) | 796 µM (≈ 256 µg/mL) | 796 µM (≈ 256 µg/mL) | 796 µM (≈ 256 µg/mL) | 24 µM (≈ 7.71 µg/mL) | 778 µM (≈ 250 µg/mL) | 10.7% | – | – | – | – | – |
| CCC(C)Oc1cccc(NC(=O)c2cc3ccccc3cc2O)c1 (stereo not drawn) [Compound 8b, N-[3-(But-2-yloxy)phenyl]-3-hydroxynaphthalene-2-carboxamide] | 23 µM (≈ 7.71 µg/mL) | – | 8.3 µM | – | 763 µM (≈ 256 µg/mL) | 763 µM (≈ 256 µg/mL) | 763 µM (≈ 256 µg/mL) | 763 µM (≈ 256 µg/mL) | – | 745 µM (≈ 250 µg/mL) | 21.7% | 2.7 ± 0.7 µM | – | – | – | – |
| CCC(C)Oc1ccccc1NC(=O)c1cc2ccccc2cc1O (stereo not drawn) [Compound 8a, N-[2-(But-2-yloxy)phenyl]-3-hydroxynaphthalene-2-carboxamide] | 23 µM (≈ 7.71 µg/mL) | – | 134 µM | – | 5.9 µM (≈ 1.98 µg/mL) | 12 µM (≈ 4.02 µg/mL) | 12 µM (≈ 4.02 µg/mL) | 12 µM (≈ 4.02 µg/mL) | – | 89 µM (≈ 29.9 µg/mL) | 23.9% | – | ~4 fold | 11.9 µM (≈ 3.99 µg/mL) | 11.9 µM (≈ 3.99 µg/mL) | 11.9 µM (≈ 3.99 µg/mL) |
| CCOc1ccccc1NC(=O)c1cc2ccccc2cc1O [Compound 4a, N-(2-Ethoxyphenyl)-3-hydroxynaphthalene-2-carboxamide] | 813 µM (≈ 250 µg/mL) | 813 µM (≈ 250 µg/mL) | 76.1 µM | – | 832 µM (≈ 256 µg/mL) | 832 µM (≈ 256 µg/mL) | 832 µM (≈ 256 µg/mL) | 832 µM (≈ 256 µg/mL) | – | – | – | >30 µM | – | – | – | – |
